Target: T1, P. falciparum falcipain-2 (Plasmodium falciparum, UniProt Q8I6U4)
T1 construct: Recombinant falcipain-2 (30 nM) was incubated for 30 min at room temperature
T1 sequence (Q8I6U4 244-484): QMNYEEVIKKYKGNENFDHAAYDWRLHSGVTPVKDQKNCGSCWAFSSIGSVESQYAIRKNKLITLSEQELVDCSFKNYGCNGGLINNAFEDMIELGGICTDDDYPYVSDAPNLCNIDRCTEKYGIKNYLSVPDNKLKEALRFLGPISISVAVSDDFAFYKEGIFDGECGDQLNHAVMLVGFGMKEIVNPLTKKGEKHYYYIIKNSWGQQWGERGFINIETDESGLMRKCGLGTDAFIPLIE
Assay: in vitro falcipain-2 inhibition assay (fluorogenic substrate Z-Leu-Arg-AMC)
Type: biochemical
Details: recombinant falcipain-2 30 nM, pH 5.5, substrate Z-Leu-Arg-AMC 25 μM; for Inhibition rate: at 10 μM concentration level; for IC50: 30 min preincubation, determined if inhibition rate larger than 20% at 10 μM
Description: The in vitro P. falciparum falcipain-2 inhibition assay against was carried out according to a previously reported method by taking N-(L-3-trans-carboxyoxiran-2-carbonyl)-L-leucyl)-amido(4-guanido)butane (E-64) as a positive control and DMSO as a negative control. Falcipain-2 could hydrolyse the fluorogenic substrate benzyloxycarbonyl-Leu-Arg-7-amino-4-methylcoumarin (Z-Leu-Arg-AMC) to produce coumarin and its activity could be evaluated by monitoring the fluorescence of the coumarin.
Recombinant falcipain-2 (30 nM) was incubated for 30 min at room temperature in 100 mM NaOAc, pH 5.5, 10 mM dithiothreitol (DTT), with different concentrations of 10a-l and 12a-f. These solutions were prepared from stock in DMSO (maximum concentration of DMSO in the assay was 1%). After incubation, the substrate Z-Leu-Arg-AMC with the same buffer was added to a final concentration of 25 μM. The increase in fluorescence (excitation at 355 nm and emission at 460 nm) was monitored for 30 min at room temperature with an automated microplate spectrofluorimeter (Biotek, Synergy 2). IC50 values were determined from plots of percent activity over compound concentration using the GraphPad Prism software if inhibition rates were larger than 20% at 10 μM concentration level.

SMILES	Inhibition rate [%]	IC50 [nM]
CC(C)C[C@H](NC(=O)[C@H]1O[C@@H]1C(=O)O)C(=O)NCCCCN=C(N)N (relative stereo) [Compound E-64, reference compound]	100.0	19.7
CC1CCC2C(C)[C@H](OC(=O)c3ccc(C=NNC(=O)Nc4ccc(F)cc4)cc3)OC3OC4(C)CCC1C32OO4 (stereo partly drawn) [Compound 12b, 4-[(10S)-Dihydroartemisinin-10-oxycarbonyl]benzaldehyde N^4-(4-fluorophenyl)semicarbazone]	69.25	650
CC1CCC2C(C)[C@H](OC(=O)c3ccc(C=NNC(=O)Nc4ccccc4F)cc3)OC3OC4(C)CCC1C32OO4 (stereo partly drawn) [Compound 12a, 4-[(10S)-Dihydroartemisinin-10-oxycarbonyl]benzaldehyde N^4-(2-fluorophenyl)semicarbazone]	79.32	470
CC1CCC2C(C)[C@@H](Oc3ccc(C=NNC(=O)Nc4ccccc4F)cc3)OC3OC4(C)CCC1C32OO4 (stereo partly drawn) [Compound 10g, 4-[(10S)-Dihydroartemisinin-10-oxy]benzaldehyde N^4-(2-fluorophenyl)semicarbazone]	76.74	2250
CC1CCC2C(C)[C@@H](Oc3ccc(C=NNC(=O)Nc4ccc(F)cc4)cc3)OC3OC4(C)CCC1C32OO4 (stereo partly drawn) [Compound 10h, 4-[(10S)-Dihydroartemisinin-10-oxy]benzaldehyde N^4-(4-fluorophenyl)semicarbazone]	84.60	1020
CCOc1ccc(NC(=O)NN=Cc2ccc(O[C@H]3OC4OC5(C)CCC6C(C)CCC(C3C)C46OO5)cc2)cc1 (stereo partly drawn) [Compound 10i, 4-[(10S)-Dihydroartemisinin-10-oxy]benzaldehyde N^4-(4-ethoxyphenyl)semicarbazone]	72.70	700
Cc1cc(C)cc(NC(=S)NN=Cc2ccc(O[C@H]3O[C@@H]4O[C@@]5(C)CC[C@H]6[C@H](C)CC[C@@H]([C@H]3C)[C@@]46OO5)cc2)c1 [Compound 10e, 4-[(10S)-Dihydroartemisinin-10-oxy]benzaldehyde N^4-(3,5-dimethylphenyl)thiosemicarbazone]	74.06	1350
Cc1ccc(C)c(NC(=O)NN=Cc2ccc(C(=O)O[C@@H]3OC4OC5(C)CCC6C(C)CCC(C3C)C46OO5)cc2)c1 (stereo partly drawn) [Compound 12d, 4-[(10S)-Dihydroartemisinin-10-oxycarbonyl]benzaldehyde N^4-(2,5-dimethylphenyl)semicarbazone]	76.61	2960
CC1CCC2C(C)[C@@H](Oc3ccc(C=NNC(=S)Nc4ccccc4F)cc3)OC3OC4(C)CCC1C32OO4 (stereo partly drawn) [Compound 10a, 4-[(10S)-Dihydroartemisinin-10-oxy]benzaldehyde N^4-(2-fluorophenyl)thiosemicarbazone]	72.48	2510
CCOc1ccc(NC(=O)NN=Cc2ccc(C(=O)O[C@@H]3OC4OC5(C)CCC6C(C)CCC(C3C)C46OO5)cc2)cc1 (stereo partly drawn) [Compound 12c, 4-[(10S)-Dihydroartemisinin-10-oxycarbonyl]benzaldehyde N^4-(4-ethoxyphenyl)semicarbazone]	75.89	290
Cc1c(Cl)cccc1NC(=O)NN=Cc1ccc(O[C@H]2OC3OC4(C)CCC5C(C)CCC(C2C)C35OO4)cc1 (stereo partly drawn) [Compound 10l, 4-[(10S)-Dihydroartemisinin-10-oxy]benzaldehyde N^4-(3-chloro-2-methylphenyl)semicarbazone]	81.82	2540
Cc1c(Cl)cccc1NC(=O)NN=Cc1ccc(C(=O)O[C@@H]2OC3OC4(C)CCC5C(C)CCC(C2C)C35OO4)cc1 (stereo partly drawn) [Compound 12f, 4-[(10S)-Dihydroartemisinin-10-oxycarbonyl]benzaldehyde N^4-(3-chloro-2-methylphenyl)semicarbaz-one]	74.67	10600
Cc1cc(C)cc(NC(=O)NN=Cc2ccc(O[C@H]3O[C@@H]4O[C@@]5(C)CC[C@H]6[C@H](C)CC[C@@H]([C@H]3C)[C@@]46OO5)cc2)c1 [Compound 10k, 4-[(10S)-Dihydroartemisinin-10-oxy]benzaldehyde N^4-(3,5-dimethylphenyl)semicarbazone]	87.88	1030
CCOc1ccc(NC(=S)NN=Cc2ccc(O[C@H]3OC4OC5(C)CCC6C(C)CCC(C3C)C46OO5)cc2)cc1 (stereo partly drawn) [Compound 10c, 4-[(10S)-Dihydroartemisinin-10-oxy]benzaldehyde N^4-(4-ethoxyphenyl)thiosemicarbazone]	87.42	520
Cc1ccc(C)c(NC(=O)NN=Cc2ccc(O[C@H]3OC4OC5(C)CCC6C(C)CCC(C3C)C46OO5)cc2)c1 (stereo partly drawn) [Compound 10j, 4-[(10S)-Dihydroartemisinin-10-oxy]benzaldehyde N^4-(2,5-dimethylphenyl)semicarbazone]	59.01	2280
Cc1c(Cl)cccc1NC(=S)NN=Cc1ccc(O[C@H]2OC3OC4(C)CCC5C(C)CCC(C2C)C35OO4)cc1 (stereo partly drawn) [Compound 10f, 4-[(10S)-Dihydroartemisinin-10-oxy]benzaldehyde N^4-(3-chloro-2-methylphenyl)thiosemicarbazone]	75.62	984
Cc1cc(C)cc(NC(=O)NN=Cc2ccc(C(=O)O[C@@H]3O[C@@H]4O[C@@]5(C)CC[C@H]6[C@H](C)CC[C@@H]([C@H]3C)[C@@]46OO5)cc2)c1 [Compound 12e, 4-[(10S)-Dihydroartemisinin-10-oxycarbonyl]benzaldehyde N^4-(3,5-dimethylphenyl)semicarbazone]	71.62	570
Cc1ccc(C)c(NC(=S)NN=Cc2ccc(O[C@H]3OC4OC5(C)CCC6C(C)CCC(C3C)C46OO5)cc2)c1 (stereo partly drawn) [Compound 10d, 4-[(10S)-Dihydroartemisinin-10-oxy]benzaldehyde N^4-(2,5-dimethylphenyl)thiosemicarbazone]	75.28	550
CC1CCC2C(C)[C@@H](Oc3ccc(C=NNC(=S)Nc4ccc(F)cc4)cc3)OC3OC4(C)CCC1C32OO4 (stereo partly drawn) [Compound 10b, 4-[(10S)-Dihydroartemisinin-10-oxy]benzaldehyde N^4-(4-fluorophenyl)thiosemicarbazone]	59.76	2170

— paper PMC6264262, “Synthesis and Antimalarial Activity of Novel Dihydro-Artemisinin Derivatives” (Molecules, 2011)
